From ChEMBL document CHEMBL6092149, “Discovery of 1(2H)-phthalazinone and 1(2H)-isoquinolinone derivatives as potent hematopoietic progenitor kinase 1 (HPK1) inhibitors” (Eur J Med Chem, 2024) come the findings set out here.

Activity calls are given as the source filed them. The rule behind the calls is not given here.

Data set [1] concerns the target T1, Mitogen-activated protein kinase kinase kinase kinase 1 (Homo sapiens, UniProt Q92918). Briefly: Inhibition of HPK1 in human T cells assessed as increase in IL-2 secretion measured after 24 hrs by ELISA method. The data set is classed as cell-based, T-cell. Conditions: for Activity: T-cell. For orientation: In an ELISA, binding on a coated surface is turned into a signal by an enzyme label.

Data set [2] addresses T1, Mitogen-activated protein kinase kinase kinase kinase 1. Briefly: Inhibition of N-terminal DYKDDDDK recombinant human HPK1 (1 to 346 residues) expressed in Sf21 insect cells preincubated for 10 min followed by fluorescein PKC and ATP addition and measured after 90 min by Envision2104 Multilabel Reader analysis.
Target sequence in this assay (Q92918 whole entry): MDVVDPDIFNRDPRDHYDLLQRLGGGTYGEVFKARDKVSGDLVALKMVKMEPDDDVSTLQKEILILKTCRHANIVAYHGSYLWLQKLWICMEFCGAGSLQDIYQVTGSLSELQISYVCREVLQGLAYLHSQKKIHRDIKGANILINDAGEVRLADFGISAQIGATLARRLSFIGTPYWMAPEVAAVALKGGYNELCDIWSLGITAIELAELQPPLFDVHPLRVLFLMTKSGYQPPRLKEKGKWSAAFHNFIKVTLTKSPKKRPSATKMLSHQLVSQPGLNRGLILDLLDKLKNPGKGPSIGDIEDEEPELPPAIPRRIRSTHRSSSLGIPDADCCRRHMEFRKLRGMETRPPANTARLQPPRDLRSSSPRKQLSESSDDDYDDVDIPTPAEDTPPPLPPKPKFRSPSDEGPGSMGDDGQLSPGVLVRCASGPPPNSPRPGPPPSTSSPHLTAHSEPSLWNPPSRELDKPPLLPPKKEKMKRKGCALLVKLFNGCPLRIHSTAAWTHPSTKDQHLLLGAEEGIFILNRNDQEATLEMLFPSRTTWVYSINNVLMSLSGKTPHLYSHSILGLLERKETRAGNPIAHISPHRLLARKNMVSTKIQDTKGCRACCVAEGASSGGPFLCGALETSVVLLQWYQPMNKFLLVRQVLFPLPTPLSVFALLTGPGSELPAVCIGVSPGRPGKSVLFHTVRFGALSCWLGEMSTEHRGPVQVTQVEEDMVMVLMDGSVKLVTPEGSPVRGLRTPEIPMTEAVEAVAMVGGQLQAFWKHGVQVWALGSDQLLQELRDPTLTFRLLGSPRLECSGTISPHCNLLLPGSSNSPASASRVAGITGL
The target is the same in data set [3]. Briefly: Inhibition of HPK1 in human Jurkat cells assessed as reduction in SLP76 phosphorylation pretreated for 1 hr followed by anti-CD3 addition and measured after 15 min by ELISA method. The data set is classed as cell-based.
Target sequence in this assay (Q92918 whole entry): as above
Data set [4] can be described thus: Cmax in overnight fasted mouse at 10 mg/kg, po. Type of data set: ADME, organism-based. The following applies: in vivo.
Data set [5] in a line: Oral bioavailability in in overnight fasted mouse at 10 mg/kg. The data set is classed as ADME, organism-based. The following applies: in vivo.
The nature of data set [6]: Half life in overnight fasted mouse at 1 mg/kg, iv. The data set is classed as ADME, organism-based. The following applies: in vivo.
Data set [7] in a line: AUC (0 to 24 hrs) in overnight fasted mouse at 10 mg/kg, po. Type of data set: ADME, organism-based. The following applies: in vivo.
A short description of data set [8]: Plasma clearance in overnight fasted mouse at 1 mg/kg, iv. The data set is classed as ADME, organism-based.
Data set [9] can be described thus: Half life in overnight fasted rat at 1 mg/kg, iv. Type of data set: ADME, organism-based. The following applies: in vivo.
Data set [10] is described as follows: Plasma Clearance in overnight fasted rat at 1 mg/kg, iv. The data set is classed as ADME, organism-based.
Data set [11] addresses Voltage-gated inwardly rectifying potassium channel KCNH2 (Homo sapiens, UniProt Q12809). The experiment in a line: Inhibition of HERG expressed in HEK293 cells at -80mV holding potential incubated for 24 to 48 hrs by whole-cell patch clamp method. (Patch clamp records ionic current or voltage across a cell membrane.)
Data set [12] can be described thus: Cmax in overnight fasted rat at 10 mg/kg, po. Conditions: in vivo. Type of data set: ADME, organism-based.
Data set [13] can be described thus: AUC (0 to 24 hrs) in overnight fasted rat at 10 mg/kg, po. Type of data set: ADME, organism-based. Conditions: in vivo.
Data set [14] has as its target T1, Mitogen-activated protein kinase kinase kinase kinase 1. Briefly: Inhibition of HPK1 in human T cells assessed as increase in IL-2 secretion at 333 nM incubated for 2 hrs and measured after 24 hrs by ELISA method. The data set is classed as cell-based. The following applies: T-cell.
Target sequence in this assay (Q92918 whole entry, looked up): as the sequence (Q92918 whole entry) above

Sequence of Voltage-gated inwardly rectifying potassium channel KCNH2 (Q12809 whole entry): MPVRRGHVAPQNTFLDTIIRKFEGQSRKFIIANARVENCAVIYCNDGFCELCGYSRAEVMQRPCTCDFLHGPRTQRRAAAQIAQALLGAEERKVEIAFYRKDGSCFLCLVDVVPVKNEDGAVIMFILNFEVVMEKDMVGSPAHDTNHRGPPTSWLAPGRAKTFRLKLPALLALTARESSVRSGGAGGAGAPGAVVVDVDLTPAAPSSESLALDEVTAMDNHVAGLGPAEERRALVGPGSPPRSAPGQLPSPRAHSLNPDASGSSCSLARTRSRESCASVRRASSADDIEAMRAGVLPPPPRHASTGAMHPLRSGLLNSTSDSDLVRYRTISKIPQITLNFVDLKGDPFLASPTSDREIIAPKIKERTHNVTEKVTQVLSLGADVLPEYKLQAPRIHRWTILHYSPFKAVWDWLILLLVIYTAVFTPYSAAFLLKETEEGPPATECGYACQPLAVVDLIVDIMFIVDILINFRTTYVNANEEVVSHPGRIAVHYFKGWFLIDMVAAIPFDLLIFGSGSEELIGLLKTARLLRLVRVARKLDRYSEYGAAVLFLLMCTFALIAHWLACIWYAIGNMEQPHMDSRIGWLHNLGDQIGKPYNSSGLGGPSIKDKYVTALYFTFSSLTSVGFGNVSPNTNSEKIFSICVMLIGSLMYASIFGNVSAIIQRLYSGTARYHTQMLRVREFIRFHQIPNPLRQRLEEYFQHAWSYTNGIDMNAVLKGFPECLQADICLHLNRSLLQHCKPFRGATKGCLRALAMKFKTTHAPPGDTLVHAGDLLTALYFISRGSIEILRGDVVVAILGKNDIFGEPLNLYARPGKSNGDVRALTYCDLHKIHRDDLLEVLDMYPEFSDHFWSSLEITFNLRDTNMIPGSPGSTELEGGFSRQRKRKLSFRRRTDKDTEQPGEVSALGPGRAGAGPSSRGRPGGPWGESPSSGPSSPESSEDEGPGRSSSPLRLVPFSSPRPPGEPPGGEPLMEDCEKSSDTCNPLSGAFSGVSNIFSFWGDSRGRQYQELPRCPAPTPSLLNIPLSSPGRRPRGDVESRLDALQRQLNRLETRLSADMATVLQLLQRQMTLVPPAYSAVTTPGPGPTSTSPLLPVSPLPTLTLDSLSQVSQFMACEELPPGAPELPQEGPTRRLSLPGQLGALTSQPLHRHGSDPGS

For orientation: EC50 means the concentration at which the effect is half-maximal. For orientation: IC50 means the midpoint of a concentration-inhibition curve. For the compound `O=c1[nH]ncc2c(-c3cnc4cc(F)ccn34)ccc(Nc3ccc(C4CCOCC4)c(CN4CC[C@@H](F)C4)n3)c12`, the EC50 in data set [1] worked out at 373 nM; in data set [3], 55 nM. Moreover, in [1], the Activity result was “Dose-dependent-effect”. Besides, the IC50 in [2] was found to be 34 nM.
Regarding `CN(C)Cc1nc(Nc2ccc(-c3cnc4cc(F)ccn34)c3c2C(=O)NCC3)ccc1C1CCOCC1`, in data set [2], the IC50 was determined as 525 nM.
Still for that read-out and setting: then `CN(C)Cc1nc(Nc2ncc(-c3cnc4cc(F)ccn34)c3cn[nH]c(=O)c23)ccc1C1CCOCC1`, with 539 nM.
As to `COC1CCN(Cc2nc(Nc3ccc(-c4cnc5cc(F)ccn45)c4cn[nH]c(=O)c34)ccc2C2CCOCC2)C1` (stereo not drawn), in data set [1], the EC50 was 254 nM and the Activity entry was “Dose-dependent-effect”. Moreover, the IC50 in data set [2] amounted to 24.4 nM. For the same compound, the EC50 in data set [3] was found to be 32 nM.
By Cmax is commonly meant the peak of the concentration-time curve. One may read the bioavailability as the share of a dose that reaches the circulation, judged against a reference dose that is usually intravenous. One may read the half-life as how long it takes for the measured level to halve. Broadly, the AUC(0-t) is the area under the concentration-time curve up to a stated or last time point. Broadly, the clearance is the rate of elimination divided by the concentration. A higher clearance goes with a high capacity for elimination. In data set [4], `CN(C)Cc1nc(Nc2ccc(-c3cnc4cc(F)ccn34)c3cc[nH]c(=O)c23)ccc1C1CCOCC1` gave a Cmax of 308 ng/mL. Also, the EC50 was determined as 220 nM in data set [1] and 76 nM in data set [3]. For the same compound, the Activity entry in [1] is “Dose-dependent-effect”. The IC50 in data set [2] came to 20 nM. For the same compound, the bioavailability in data set [5] was 86%. In data set [6], this compound had a half-life of 24 min. Moreover, in data set [7], the AUC(0-t) amounted to 892 ng·h/mL. The clearance in [8] amounted to 159 mL/min/kg.
Turning to `O=C(NCc1nc(Nc2ccc(-c3cnc4cc(F)ccn34)c3cn[nH]c(=O)c23)ccc1C1CCOCC1)NC1CC1`, the IC50 in data set [2] was above 1000 nM.
With `CN(C)Cc1nc(Nc2ccc(-c3cnc4cc(F)ccn34)c3c2C(=O)NC3)ccc1C1CCOCC1`, the Cmax in data set [4] amounted to 282 ng/mL; in data set [12], 74 ng/mL. Further, the half-life in data set [9] was 84 min; in [6], 30 min. In addition, the clearance worked out at 230 mL/min/kg in data set [10] and 269 mL/min/kg in data set [8]. Moreover, the AUC(0-t) was 1350 ng·h/mL in data set [7] and 312 ng·h/mL in data set [13]. In addition, in data set [11], the IC50 was 2850 nM. For the same compound, the outcome in data set [14] was Active.
As to `O=c1[nH]ncc2c(-c3cnc4cc(F)ccn34)ccc(Nc3ccc(C4CCOCC4)c(CN4CCC(O)C4)n3)c12` (stereo not drawn), in data set [1], the EC50 worked out at 223 nM and the Activity result is “Dose-dependent-effect”. Further, the IC50 in data set [2] was 39.1 nM.
On to `Cc1cc2c(-c3cnc4cc(F)ccn34)ccc(Nc3ccc(C4CCOCC4)c(CN(C)C)n3)c2c(=O)[nH]1`, for which the IC50 in data set [2] is above 1000 nM.
Turning to `CN(C)Cc1nc(Nc2ccc(-c3cnc4cc(F)ccn34)c3cn[nH]c(=O)c23)ccc1C1CCOCC1`, the Cmax in data set [4] was 725 ng/mL. Besides, in data set [1], the EC50 was found to be 123 nM and the Activity result was “Dose-dependent-effect”. Moreover, the IC50 in [2] worked out at 6.9 nM. The compound also came in with a bioavailability in data set [5] of 77%. The compound further gave a half-life in [6] of 12 min. Also, the AUC(0-t) in data set [7] was 477 ng·h/mL. For the same compound, the clearance in data set [8] came out at 263 mL/min/kg. Also, the EC50 in [3] was found to be 19.2 nM.
Turning to `O=c1[nH]ncc2c(-c3cnc4cc(F)ccn34)ccc(Nc3ccc(C4CCOCC4)c(CN4CC[C@H](F)C4)n3)c12`, the peak level in data set [4] (Cmax) was 484 ng/mL. Besides, the concentration for a half-maximal effect (EC50) in data set [1] was determined as 187 nM; in data set [3] it was 14 nM. Further, the Activity result in data set [1] was “Dose-dependent-effect”. In addition, in [2], the IC50 was determined as 5.4 nM. Also, the bioavailability in [5] worked out at 31%. Moreover, the half-life in data set [6] is 30 min. Further, in [7], the AUC(0-t) is 506 ng·h/mL. Further, the clearance in [8] came to 104 mL/min/kg.
Take `CN(C)Cc1nc(Nc2ccc(-c3cnc4cc(F)ccn34)c3c(F)c[nH]c(=O)c23)ccc1C1CCOCC1`: in data set [2], the IC50 was above 1000 nM.
